Measurements as given in ChEMBL document CHEMBL3108765, “2-Aminonicotinic acid 1-oxides are chemically stable inhibitors of quinolinic acid synthesis in the mammalian brain: a step toward new antiexcitotoxic agents” (J Med Chem, 2013).

Columns and labels:
[1] = Chemical stability in PBS buffer assessed as auto-oxidative degradation after 24 hrs by HPLC analysis; type: physicochemical; settings: read-out: Drug degradation
[2] = Drug degradation in PBS buffer assessed as parent compound level at 100 uM after 24 hrs by HPLC/UV-vis spectroscopic analysis; type: physicochemical; settings: read-out: Stability
[3] = biological target: T1, 3-hydroxyanthranilate 3,4-dioxygenase (Rattus norvegicus) (UniProt P46953); assay: Inhibition of 3-HAO in Sprague-Dawley rat brain homogenates using [1-14C]-3-HANA as substrate assessed as [14C]-QUIN production at 100 uM after 1 hr by liquid scintillation spectrometric analysis relative to control; type: tissue-based
T1 sequence (whole entry): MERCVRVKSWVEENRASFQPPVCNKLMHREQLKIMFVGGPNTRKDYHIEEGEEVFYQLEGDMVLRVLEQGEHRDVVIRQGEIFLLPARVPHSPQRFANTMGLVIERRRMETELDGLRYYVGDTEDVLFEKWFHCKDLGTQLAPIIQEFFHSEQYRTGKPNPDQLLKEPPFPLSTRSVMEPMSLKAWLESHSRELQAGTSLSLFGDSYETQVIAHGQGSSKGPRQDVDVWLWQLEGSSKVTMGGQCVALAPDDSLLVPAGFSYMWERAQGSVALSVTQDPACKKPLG

[4] = biological target: T2, 3-hydroxyanthranilate 3,4-dioxygenase (Homo sapiens) (UniProt P46952); assay: Inhibition of 3-HAO in human brain homogenates using [1-14C]-3-HANA as substrate assessed as [14C]-QUIN production at 10 uM after 1 hr by liquid scintillation spectrometric analysis relative to control; type: tissue-based
T2 sequence (whole entry): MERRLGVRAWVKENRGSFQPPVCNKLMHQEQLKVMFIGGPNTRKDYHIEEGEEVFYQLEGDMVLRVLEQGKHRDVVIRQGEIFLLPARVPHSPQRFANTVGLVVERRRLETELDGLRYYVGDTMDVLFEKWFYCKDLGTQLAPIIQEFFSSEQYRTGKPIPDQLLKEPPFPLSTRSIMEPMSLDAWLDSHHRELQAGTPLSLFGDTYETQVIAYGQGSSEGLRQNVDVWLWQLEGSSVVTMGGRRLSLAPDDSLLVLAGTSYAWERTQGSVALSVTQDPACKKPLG

[5] = biological target: T1, 3-hydroxyanthranilate 3,4-dioxygenase (Rattus norvegicus); assay: Inhibition of 3-HAO in Sprague-Dawley rat brain homogenates using [1-14C]-3-HANA as substrate assessed as [14C]-QUIN production at 10 uM after 1 hr by liquid scintillation spectrometric analysis relative to control; type: tissue-based
[6] = biological target: T2, 3-hydroxyanthranilate 3,4-dioxygenase (Homo sapiens); assay: Inhibition of 3-HAO in human brain homogenates using [1-14C]-3-HANA as substrate assessed as [14C]-QUIN production at 100 uM after 1 hr by liquid scintillation spectrometric analysis relative to control; type: tissue-based
[7] = biological target: T2, 3-hydroxyanthranilate 3,4-dioxygenase (Homo sapiens); assay: Inhibition of 3-HAO in human brain homogenates using [1-14C]-3-HANA as substrate assessed as [14C]-QUIN production at 1 mM after 1 hr by liquid scintillation spectrometric analysis relative to control; type: tissue-based
[8] = biological target: T1, 3-hydroxyanthranilate 3,4-dioxygenase (Rattus norvegicus); assay: Inhibition of 3-HAO in Sprague-Dawley rat brain homogenates using [1-14C]-3-HANA as substrate assessed as [14C]-QUIN production at 1 mM after 1 hr by liquid scintillation spectrometric analysis relative to control; type: tissue-based
[9] = Drug degradation in PBS buffer assessed as parent compound level at 10 uM after 24 hrs by HPLC/UV-vis spectroscopic analysis; type: physicochemical; settings: read-out: Stability
[10] = biological target: T3, 3-hydroxyanthranilate 3,4-dioxygenase (Rattus norvegicus, UniProt P46953); assay: Inhibition of 3-HAO in Sprague-Dawley rat brain homogenates using [1-14C]-3-HANA as substrate assessed as [14C]-QUIN production after 1 hr by liquid scintillation spectrometric analysis; type: tissue-based
T3 sequence (P46953 whole entry): T1 sequence (whole entry)

[11] = test system: Rattus norvegicus; assay: In vivo inhibition of 3-HAO in excitotoxically lesioned Sprague-Dawley rat striatum assessed as de novo formation of [3H]-QUIN administered as intrastriatally measured after 2 hrs (reference value: 3.4 +/- 0.5%); type: functional
[12] = biological target: T4, 3-hydroxyanthranilate 3,4-dioxygenase (Homo sapiens, UniProt P46952); assay: Inhibition of 3-HAO in human brain homogenates using [1-14C]-3-HANA as substrate assessed as [14C]-QUIN production after 1 hr by liquid scintillation spectrometric analysis; type: tissue-based
T4 sequence (P46952 whole entry): T2 sequence (whole entry)

degraded at 24 h [1] | remaining at 24 h, 100 µM [2] | inhibition [3] | inhibition [4] | inhibition [5] | inhibition [6] | inhibition [7] | inhibition [8] | remaining at 24 h, 10 µM [9] | IC50 [10] | IC50 [12] | Compound | [3H]-QUIN formed [11]
 | 103% | 84.9% | 74% | 47.6% | 88.8% | 94% | 92.4% | 101% |  |  | Nc1c(C(=O)O)ccc[n+]1[O-] | 
 |  | 30.7% | 16.3% | 8.7% | 52.6% | 80.1% | 67.6% |  |  |  | Cc1cc(C(=O)O)c(N)[n+]([O-])c1 | 
 |  | -0.6% | -2.9% | -2.4% | -0.5% | 5.6% | 2.4% |  |  |  | Cc1ccc(C#N)c(N)[n+]1[O-] | 
 |  | 84% | 72.9% | 67.3% | 89.6% | 95.2% | 95.2% |  |  |  | Nc1c(C(=O)O)ccc(Cl)[n+]1[O-] | 
 |  | 55.2% | 22.9% | 14.5% | 67.2% | 89.1% | 83.7% |  |  |  | Nc1c(C(=O)O)cc(Br)c[n+]1[O-] | 
 |  | 1.2% | -7.9% | 1% | -5.8% | 6% | 9.3% |  |  |  | COC(=O)c1ccc(C)[n+]([O-])c1N | 
 | 102% | 94.1% | 85.5% | 76.9% | 92.3% | 94.4% | 96% | 101% | 2800 nM | 1100 nM | Cc1ccc(C(=O)O)c(N)[n+]1[O-] | 0.9%
 |  | 42.6% | 24.8% | 9.1% | 68.6% | 85.9% | 74.4% |  |  |  | Nc1c(C(=O)O)cc(Cl)c[n+]1[O-] | 
 |  | 11.4% | -5.4% | 2.9% | -3% | 30.4% | 37% |  |  |  | O=C(O)c1ccc(Cl)[n+]([O-])c1 | 
 |  | 6.4% | 5.5% | 0.6% | 13% | 44.3% | 46.9% |  |  |  | O=c1[nH]cnc2c1ccc[n+]2[O-] | 
 |  | 90.7% | 76.6% | 69.9% | 88.4% | 90.4% | 94.2% |  |  |  | CCc1ccc(C(=O)O)c(N)[n+]1[O-] | 

The next lines start with the molecule.

Compound | degraded at 24 h [1] | remaining at 24 h, 100 µM [2] | inhibition [3] | inhibition [4] | inhibition [5] | inhibition [6] | inhibition [7] | inhibition [8] | remaining at 24 h, 10 µM [9] | IC50 [10] | IC50 [12] | [3H]-QUIN formed [11]
Nc1c(C(=O)O)ccc(Cl)c1O | 62% |  |  |  |  |  |  |  |  |  |  | 
Cc1cc(C(=O)O)c(N)[n+]([O-])c1C |  |  | 61.6% | 31.3% | 17.6% | 76.3% | 89.1% | 85.8% |  |  |  | 
Cc1ccc(C(N)=O)c(N)[n+]1[O-] |  |  | -2% | 1.7% | -1.1% | 1.3% | 20.1% | 11.5% |  |  |  | 
Cc1cc(C(C)C)c(C(=O)O)c(N)[n+]1[O-] |  |  | 2.2% | 4% | 1.1% | 10.2% | 24.1% | 25.7% |  |  |  | 
Cc1cc(C)[n+]([O-])c(N)c1C(=O)O |  |  | 4.3% | 0.7% | -0.8% | 16.3% | 69.5% | 46.6% |  |  |  | 
CC(C)c1cc(C(C)C)[n+]([O-])c(N)c1C(=O)O |  |  | 2.9% | -5.4% | 1.2% | 1.5% | 10.6% | 14.6% |  |  |  | 
Cc1cc(-c2ccccc2)c(C(=O)O)c(N)[n+]1[O-] |  |  | 5.5% | -2.8% | 2.4% | 4.1% | 7.4% | 14.8% |  |  |  | 
CCc1cc(C)[n+]([O-])c(N)c1C(=O)O |  |  | 3.1% | 8.5% | 2.8% | 10.9% | 20% | 23% |  |  |  | 
Cc1ccc(C(=O)O)c(N)n1 |  |  | 5.1% | -3.6% | -2.1% | 0.7% | 24.8% | 42.5% |  |  |  | 
